Test results: PubChem BioAssay (NCI)
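Method: 48-hour compound exposure of cells in 96-well plates, five concentrations, linear interpolation of endpoints. At the GI50, growth is halved. TGI: concentration producing complete growth inhibition.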

Legend:
Assay in all cases: NCI tumour cell line growth inhibition, 48 h
HCC-2998 colon = system: HCC-2998 colon
LOX IMVI melanoma = system: LOX IMVI melanoma
KM12 colon = system: KM12 colon
IGROV1 ovarian = system: IGROV1 ovarian
SNB-75 CNS = system: SNB-75 CNS
SK-OV-3 ovarian = system: SK-OV-3 ovarian
TK-10 renal = system: TK-10 renal
A549 NSCLC = system: A549 NSCLC
SNB-19 CNS = system: SNB-19 CNS
COLO 205 colon = system: COLO 205 colon
NCI-H226 lung = system: NCI-H226 lung
DU-145 prostate = system: DU-145 prostate
HS 578T breast = system: HS 578T breast
MCF7 breast = system: MCF7 breast
MDA-MB-435 = system: MDA-MB-435

Structure (SMILES) | TGI (HCC-2998 colon) [µM] | TGI (LOX IMVI melanoma) [µM] | TGI (KM12 colon) [µM] | TGI (IGROV1 ovarian) [µM] | TGI (SNB-75 CNS) [µM] | TGI (SK-OV-3 ovarian) [µM] | TGI (TK-10 renal) [µM] | TGI (A549 NSCLC) [µM] | TGI (SNB-19 CNS) [µM] | TGI (COLO 205 colon) [µM] | TGI (NCI-H226 lung) [µM] | GI50 (DU-145 prostate) [µM] | TGI (DU-145 prostate) [µM] | GI50 (SK-OV-3 ovarian) [µM] | GI50 (TK-10 renal) [µM] | GI50 (A549 NSCLC) [µM] | GI50 (HS 578T breast) [µM] | TGI (HS 578T breast) [µM] | TGI (MCF7 breast) [µM] | TGI (MDA-MB-435) [µM]
Cc1[nH]n(-c2ccccc2)c(=S)c1C(=O)c1ccccc1 | 77.1 | > 100 | > 100 | > 100 | > 100 | > 100 | 94.4 | > 100 | > 100 | > 100 | – | – | – | – | – | – | – | – | – | –
Cc1c2n(c3ccccc13)CC1C2N(C)OC1(C)C (stereo not drawn) | > 100 | – | > 100 | – | > 100 | > 100 | – | > 100 | > 100 | > 100 | > 100 | – | – | – | – | – | – | – | – | –
CCC12C=CCN3CC[C@]4(C(=C(C(=O)OC)[C@@H]1Nc1ccn(C5OC(COC(C)=O)C(OC(C)=O)C5OC(C)=O)c(=O)n1)Nc1ccccc14)C32 (stereo partly drawn) | 7.73 | 7.81 | 2.54 | 9.68 | 7.63 | 9.45 | 10.1 | 15.1 | 9.27 | 8.11 | 8.25 | – | – | – | – | – | – | – | – | –
CC1=NN(C(=O)c2ccc(Cl)cc2)C(=O)/C1=C/c1cccc(O)c1 | > 100 | > 100 | > 100 | > 100 | – | > 100 | > 100 | > 100 | > 100 | > 100 | > 100 | – | – | – | – | – | – | – | – | –
Clc1ccc2c(NCCNc3nc(-c4ccccc4)cc(-c4ccccc4)n3)ccnc2c1 | – | – | – | – | – | 3.33 | 3.41 | 3.78 | – | – | – | 1.79 | 3.45 | 1.75 | 1.86 | 2 | 1.99 | 4.56 | – | –
OCCOCCO[P+]1(OCCOCCO)n2c3ccc2C(c2ccccc2)=C2C=CC(=N2)C(c2ccccc2)=c2ccc(n21)=C(c1ccccc1)C1=NC(=C3c2ccccc2)C=C1 | 0.321 | 0.952 | 0.429 | – | – | 1.79 | 1.74 | 3.29 | – | 0.0998 | – | – | 1.72 | – | – | – | – | 0.379 | 1.55 | –
Cc1sc(N=Nc2c(O)[nH]c3ccccc23)nc1-c1ccccc1 | 51.1 | 36 | 43.7 | 27.1 | 47 | 33.6 | 59.2 | 32.6 | 37.3 | 46.2 | > 100 | – | 24.8 | – | – | – | – | – | 45.1 | 66.8
CCN(CC)CC(C)(C)C(=O)/C=C/c1ccc(C)cc1 | 21.6 | 24.1 | 19 | – | 23.5 | 60.6 | 27.9 | 42.7 | 25 | – | – | – | – | – | – | – | – | – | – | –
Cc1ccc(N2C(=O)/C(=c3\s/c(=C(/N)O)c(=N)n3-c3ccccc3)SC2=S)cc1 | > 100 | – | > 100 | > 100 | 28 | > 100 | > 100 | > 100 | > 100 | > 100 | > 100 | – | – | – | – | – | – | – | – | –
CCC(C)(C)NC1=C(NC(C)=O)C(=O)c2ccccc2C1=O | > 75 | > 75 | > 75 | > 75 | > 75 | > 75 | > 75 | > 75 | > 75 | > 75 | > 75 | – | – | – | – | – | – | – | – | –
c1ccc2cc3n[se]nc3cc2c1 | > 100 | > 100 | > 100 | > 100 | > 100 | > 100 | > 100 | > 100 | > 100 | > 100 | – | – | – | – | – | – | – | – | – | –
CC(C)CCNC(=O)c1ccc(CNC(=O)/C=C/c2ccc(-c3ccccc3[N+](=O)[O-])o2)cc1 | > 100 | > 100 | > 100 | – | > 100 | > 100 | – | > 100 | > 100 | > 100 | 62.9 | – | > 100 | – | – | – | – | – | > 100 | > 100
C=C1C(=O)C=C2C=C3C(=O)C(C)(C)C[C@]3(O)C12C (stereo partly drawn) | 34.4 | 11 | 32.1 | 36.5 | 31.4 | 38.1 | 3.42 | 40.4 | 44.5 | 3.53 | 45.6 | – | 33.9 | – | – | – | – | 43.8 | – | 32.6
CC(C)NC(C)Cc1ccccc1 (stereo not drawn) | > 100 | > 100 | > 100 | > 100 | > 100 | > 100 | > 100 | > 100 | > 100 | > 100 | > 100 | – | – | – | – | – | – | – | – | –
N#Cc1c(N2CCOCC2)ncn(-c2ccccc2)c1=O | > 100 | > 100 | > 100 | > 100 | > 100 | > 100 | – | > 100 | > 100 | > 100 | > 100 | – | > 100 | – | – | – | – | – | > 100 | > 100
CCCCCCCCCCCCCCCCCCNc1ccn(C2OC(CO)C(OP(=O)(O)OCC3CCC(n4ccc(N)nc4=O)O3)C2O)c(=O)n1 (stereo not drawn) | – | > 100 | > 100 | > 100 | > 100 | > 100 | > 100 | > 100 | > 100 | > 100 | > 100 | – | > 100 | – | – | – | – | > 100 | – | > 100
CNC(=O)N(CCC#N)CCN(CCN(C(=O)NC)c1ccccc1)C(=O)NC | > 100 | > 100 | > 100 | > 100 | > 100 | > 100 | > 100 | > 100 | > 100 | > 100 | > 100 | – | > 100 | – | – | – | – | – | > 100 | > 100
CC(C)(C)C1CCC2c3c([nH]c4ccccc34)C3C(=O)N(c4ccc(Br)cc4)C(=O)C3C2C1 (stereo not drawn) | 11.9 | 29.2 | 53.8 | 48 | 54.8 | – | 42 | 47.5 | 40 | 23.3 | 36.1 | – | – | – | – | – | – | – | – | –
Nc1nc(=O)n(C2OC(CO)C(O)C2O)cc1F (stereo not drawn) | > 100 | > 38 | > 100 | > 100 | > 56.4 | > 100 | – | > 100 | > 100 | > 100 | > 100 | – | – | – | – | – | – | – | > 100 | –
COc1ccc(C2=C(OC(C)=O)c3cccn3-c3ccccc3S2)cc1 | > 10 | > 10 | > 10 | > 10 | > 10 | > 10 | > 10 | > 10 | – | 8.53 | – | – | > 10 | – | – | – | – | – | > 10 | 0.877
C[n+]1c2ccccc2c(NC(CCC(N)=O)C(=O)O)c2ccccc21 (stereo not drawn) | > 100 | – | > 100 | > 100 | > 100 | > 100 | > 100 | > 100 | > 100 | > 100 | > 100 | – | – | – | – | – | – | – | – | –
COC(=O)[C@]1(c2cc3ccccc3n2S(=O)(=O)c2ccccc2)CC2CCC1NC2 (stereo partly drawn) | 21.6 | 36.4 | 28.3 | 33.7 | 30.5 | 32.8 | > 100 | 25.2 | 28 | 29.7 | 33.2 | – | 30.4 | – | – | – | – | – | 28 | 27.4
CC(C)(C)OC(=O)C1/C(=C/CO)CN1C(=O)OC(C)(C)C (stereo not drawn) | > 100 | > 100 | – | > 100 | – | > 100 | > 100 | > 100 | > 100 | > 100 | – | – | – | – | – | – | – | > 100 | > 100 | > 100
CCOc1ccc(N=Cc2cc(OC)c(OC)c(OC)c2)cc1 | – | > 100 | > 100 | > 100 | > 100 | > 100 | > 100 | > 100 | > 100 | > 100 | – | – | – | – | – | – | – | – | – | –
C(/COc1cccnc1)=N\NC1=NCCN1 | > 100 | > 100 | > 100 | > 100 | > 100 | > 100 | > 100 | > 100 | > 100 | > 100 | > 100 | – | – | – | – | – | – | – | – | –
c1ccc(C2CC(N3CCOCC3)=Nc3ccccc3N2)cc1 (stereo not drawn) | – | – | > 100 | > 100 | – | > 100 | > 100 | > 100 | > 100 | > 100 | > 100 | – | > 100 | – | – | – | – | > 100 | – | > 100
CN1c2ccccc2C2c3c(O)ccc(O)c3C=C([N+](=O)[O-])C21 (stereo not drawn) | 2.8 | – | 1.82 | 5.87 | > 24.2 | 13.5 | 23.3 | 3.57 | 2.03 | 8.55 | > 92.9 | – | – | – | – | – | – | – | 0.346 | 0.366
Cc1ccc2c(c1)NC(=O)C(N=[N+]=[N-])(c1ccccc1)C2=O (stereo not drawn) | > 100 | 37.7 | 40 | > 100 | > 100 | 84.3 | > 100 | > 100 | 98.1 | 27.1 | – | – | – | – | – | – | – | – | – | –
CCNC1CC(C(C)(C)NCC)CC=C1C (stereo not drawn) | > 100 | > 100 | > 100 | > 100 | > 100 | > 100 | > 100 | > 100 | > 100 | > 100 | – | – | > 100 | – | – | – | – | – | > 100 | > 100
